Assay results: article PMC4573970, “Further validation to support clinical translation of [^18F]FTC-146 for imaging sigma-1 receptors” (EJNMMI Research, 2015)

Assays:
sigma-1 receptor (S1R) = molecular target: T1, sigma-1 receptor (S1R) (Mus musculus, UniProt O55242); test: in vivo PET blocking of […]FTC-146 ([…] mg/kg), with S1R-KO control; format: cell-based
T1 construct: gene Sigmar1; native receptor in WT mouse brain

[1] = molecular target: T2, vesicular acetylcholine transporter (VAChT) (Homo sapiens, UniProt Q16572)
T2 construct: gene SLC18A3
T2 sequence (Q16572 1-532): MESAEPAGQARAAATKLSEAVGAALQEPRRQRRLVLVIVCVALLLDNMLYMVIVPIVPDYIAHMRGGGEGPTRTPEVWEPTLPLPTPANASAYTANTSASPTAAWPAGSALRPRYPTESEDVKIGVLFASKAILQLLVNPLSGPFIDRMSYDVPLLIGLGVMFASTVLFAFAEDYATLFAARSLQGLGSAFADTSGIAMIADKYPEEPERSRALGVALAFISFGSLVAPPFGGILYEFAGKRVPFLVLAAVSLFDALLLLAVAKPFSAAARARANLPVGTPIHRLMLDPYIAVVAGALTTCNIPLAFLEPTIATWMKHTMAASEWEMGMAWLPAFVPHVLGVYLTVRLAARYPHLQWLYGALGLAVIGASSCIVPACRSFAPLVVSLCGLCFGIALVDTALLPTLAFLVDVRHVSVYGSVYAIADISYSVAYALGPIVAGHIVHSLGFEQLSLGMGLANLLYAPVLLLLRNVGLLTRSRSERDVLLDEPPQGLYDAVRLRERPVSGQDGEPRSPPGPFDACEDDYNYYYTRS

T1 sequence (O55242 whole entry): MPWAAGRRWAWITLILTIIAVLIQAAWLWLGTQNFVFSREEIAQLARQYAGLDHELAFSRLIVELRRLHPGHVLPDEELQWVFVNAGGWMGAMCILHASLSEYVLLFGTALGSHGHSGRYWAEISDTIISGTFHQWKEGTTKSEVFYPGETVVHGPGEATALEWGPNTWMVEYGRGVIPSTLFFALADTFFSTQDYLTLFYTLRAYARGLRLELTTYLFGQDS

Structure (SMILES)	in vivo PET blocking of [18F]FTC-146 (1 mg/kg), with S1R-KO control (sigma-1 receptor (S1R))	Ki [1] [nM]
CN(C)CCN(C)CCc1ccc(Cl)c(Cl)c1 [BD1047]	following receptor blocking with a known S1R antagonist (BD-1047), showed similarly rapid washout of tracer	
O=c1sc2cc(CCCF)ccc2n1CCN1CCCCCC1 [FTC-146]		450 ± 80
